Results as given in patent US20190223437A1, “ACTIVE COMPOUND COMBINATIONS COMPRISING A 5-SUBSTITUTED IMIDAZOLE DERIVATIVE” (BAYER CROPSCIENCE AKTIENGESELLSCHAFT, priority 2016, published 2019).
Where “and” joins values, the source holds several entries; their conditions need not be identical. Identical values can stand only once. Like-named read-outs stand apart in the source and are kept apart here.

Columns and labels:
[1] = Example G: in vivo ecotoxicity screening test on fish (Danio rerio); conditions: Danio rerio, in vivo, other: exposure of embryos in water containing the compound
Description: (§1) with ECxi the Effect Concentration (EC) of each chemical i (in ppm) causing x % effect on the ecotoxicity test endpoint.
(§2) For each compound combination, the predicted ECx value is calculated. It is then compared to an experimentally measured value. The ratio of predicted versus measured effect for the combination (thereafter called the Model Deviation Ratio or MDR) is then calculated.
(§3) The environmental effect of the compound combinations was measured experimentally in laboratory ecotoxicity screening studies with fish (Danio rerio). […] Mortality was recorded after 48 h and 96 h for each tested concentration and a reference control. […] Then, the MDR values were calculated.
(§4) This concentrate is then diluted with water to the desired a.i. concentration, leading to a maximal solvent concentration of 0.5%. by weight The compounds alone and the combinations were tested for five increasing concentrations comprised between 0.01 and 1000 ppm (mg/1) a.i., (e.g. 0.1, 1.0, 10 and 100 ppm a.i). For the combinations, compounds A and B were mixed in a weight ratio of 5:1 to 1:5 and five increasing concentrations were tested for each ratio.

Alternaria alternata = experiment: Example F: in vitro-Test with Alternaria alternata; format: cell-based; conditions: compound alone, growth inhibition, photometric, 3-5 days after application
Sphaerotheca fuliginea = experiment: Example D: in vivo preventive test on Sphaerotheca test (cucumbers); conditions: compound alone
Septoria tritici = experiment: Example F: in vitro-Test with Septoria tritici; format: cell-based; conditions: compound alone
Colletotrichum coccodes = experiment: Example B: in vivo preventive test on Colletotrichum test (tomatoes); conditions: compound alone
Description: (§5) The test is evaluated 3 days after the inoculation.

Pyricularia oryzae = format: cell-based; conditions: compound alone
[2] = tested on: causal agent of soybean rust (Phakopsora pachyrhizi); experiment: Example C: in vivo preventive test on Phakopsora test (soybeans); conditions: compound alone
[3] = tested on: fish (Danio rerio) embryos; experiment: Example G: in vivo ecotoxicity screening test on fish (Danio rerio); conditions: active compound alone, fish (D. rerio) embryos; for Ecotoxicity LC50-48 h found: mortality after 48 h; for Ecotoxicity LC50-96 h found: mortality after 96 h
Description: as §1, §2, §3, §4

Alternaria solani = experiment: Example A: in vivo preventive test on Alternaria test (tomatoes); conditions: compound alone, evaluated 3 days after inoculation
Description: as §5

Pyrenophora oryzae = experiment: Example F: in vitro-Test with Pyrenophora oryzae; format: cell-based; conditions: compound alone
[4] = tested on: causal agent of apple scab (Venturia inaequalis); experiment: Example E: in vivo preventive test on Venturia test (apples); conditions: compound alone

For `CCCN(CC)CC1COC2(CCC(C(C)(C)C)CC2)O1` (stereo not drawn) [1.020 spiroxamine, spiroxamine, reference compound], the LC50 at 48 h [1] was 16.5 µg/mL, the LC50 at 96 h [1] was 14.8 µg/mL and the Efficacy % (Alternaria alternata; 4 ppm) was 13%. The Efficacy % (Alternaria alternata; 20 ppm) was 5%, the Efficacy % (Alternaria alternata; 100 ppm) was 66% and the “Efficacy in % found” value (Sphaerotheca fuliginea; 25 ppm a.i.) was 0%. The “Efficacy in % found” value (Sphaerotheca fuliginea; 50 ppm a.i.) was 30% and the “Efficacy in % found” value (Sphaerotheca fuliginea; 100 ppm a.i.) was 40%.
For `COCC(=O)N(c1c(C)cccc1C)[C@H](C)C(=O)OC` [12.004 mefenoxam], the Efficacy % (Septoria tritici; 20 ppm) was 28%, the Efficacy % (Septoria tritici; 100 ppm) was 42% and the “Efficacy in % found” value (Colletotrichum coccodes; 50 ppm a.i.) was 0%. The “Efficacy in % found” value (Colletotrichum coccodes; 100 ppm a.i.) was 8%, the “Efficacy in % found” value (Colletotrichum coccodes; 200 ppm a.i.) was 15% and the Efficacy % (Pyricularia oryzae; 20 ppm) was 0%. For the same molecule, the Efficacy % (Pyricularia oryzae; 100 ppm) was 0%, the “Efficacy in % found” value ([2]; 50 ppm a.i.) was 0% and the “Efficacy in % found” value ([2]; 100 ppm a.i.) was 8%. For the same molecule, the “Efficacy in % found” value ([2]; 200 ppm a.i.) was 0%.
With `Cc1nn(C)c(F)c1C(=O)Nc1ccccc1C(C)CC(C)C` (stereo not drawn) [Example 2.017, penflufen] the “Ecotoxicity LC50-48 h found” value [3] was 1.74 ppm a.i and the “Ecotoxicity LC50-96 h found” value [3] was 0.62 ppm a.i.
`N#Cc1cncn1CC(O)(Cc1cccc(Cl)c1F)C1(Cl)CC1` (stereo not drawn) [Example I-145, 1-[3-(3-chloro-2-fluorophenyl)-2-(1-chlorocyclopropyl)-2-hydroxypropyl]-1H-imidazole-5-carbonitrile] gave an Efficacy % (Septoria tritici; 0.008 ppm) of 29%, an Efficacy % (Septoria tritici; 0.04 ppm) of 25% and an Efficacy % (Septoria tritici; 0.2 ppm) of 51%. For the same molecule, the Efficacy % (Septoria tritici; 1 ppm) was 63%, the “Efficacy in % found” value (Colletotrichum coccodes; 1 ppm a.i.) was 23% and the “Efficacy in % found” value (Colletotrichum coccodes; 5 ppm a.i.) was 75%. For the same molecule, the LC50 at 48 h [1] was 28.2 µg/mL, the LC50 at 96 h [1] was 13.4 µg/mL and the Efficacy % (Pyricularia oryzae; 0.2 ppm) was 84%. For the same molecule, the Efficacy % (Pyricularia oryzae; 1 ppm) was 87%, the “Efficacy in % found” value (Alternaria solani; 1 ppm a.i.) was 8% and the “Efficacy in % found” value (Alternaria solani; 5 ppm a.i.) was 40%. It also gave an Efficacy % (Pyrenophora oryzae; 0.008 ppm) of 0%, an Efficacy % (Pyrenophora oryzae; 0.04 ppm) of 0% and an Efficacy % (Alternaria alternata; 0.008 ppm) of 0%. For the same molecule, the Efficacy % (Alternaria alternata; 0.04 ppm) was 0% and 2%, the Efficacy % (Alternaria alternata; 0.2 ppm) was 32% and the Efficacy % (Alternaria alternata; 1 ppm) was 1%. The “Efficacy in % found” value (Sphaerotheca fuliginea; 1 ppm a.i.) was 0%, the “Efficacy in % found” value (Sphaerotheca fuliginea; 5 ppm a.i.) was 0% and the “Efficacy in % found” value ([2]; 1 ppm a.i.) was 0%. The “Efficacy in % found” value ([2]; 5 ppm a.i.) was 45%, the “Efficacy in % found” value ([4]; 1 ppm a.i.) was 0% and the “Efficacy in % found” value ([4]; 5 ppm a.i.) was 66%.
For mancozeb [5.013 mancozeb], the “Efficacy in % found” value (Colletotrichum coccodes; 12.5 ppm a.i.) was 0%, the “Efficacy in % found” value (Colletotrichum coccodes; 25 ppm a.i.) was 0% and the “Efficacy in % found” value (Colletotrichum coccodes; 50 ppm a.i.) was 8%. The “Efficacy in % found” value (Alternaria solani; 12.5 ppm a.i.) was 8%, the “Efficacy in % found” value (Alternaria solani; 25 ppm a.i.) was 10% and the “Efficacy in % found” value (Alternaria solani; 50 ppm a.i.) was 85%. The Efficacy % (Alternaria alternata; 0.8 ppm) was 51%, the Efficacy % (Alternaria alternata; 4 ppm) was 78% and the “Efficacy in % found” value ([2]; 12.5 ppm a.i.) was 0%. The “Efficacy in % found” value ([2]; 25 ppm a.i.) was 15%, the “Efficacy in % found” value ([2]; 50 ppm a.i.) was 80% and the “Efficacy in % found” value ([4]; 5 ppm a.i.) was 15%. The “Efficacy in % found” value ([4]; 10 ppm a.i.) was 49% and the “Efficacy in % found” value ([4]; 20 ppm a.i.) was 95%.
For metalaxyl [12.003 metalaxyl], the Efficacy % (Septoria tritici; 20 ppm) was 43%, the Efficacy % (Septoria tritici; 100 ppm) was 31% and the “Efficacy in % found” value (Colletotrichum coccodes; 50 ppm a.i.) was 0%. The “Efficacy in % found” value (Colletotrichum coccodes; 100 ppm a.i.) was 0%, the “Efficacy in % found” value (Colletotrichum coccodes; 200 ppm a.i.) was 8% and the “Ecotoxicity LC50-48 h found” value [3] was over 200 ppm a.i. For the same molecule, the “Ecotoxicity LC50-96 h found” value [3] was over 200 ppm a.i, the Efficacy % (Pyricularia oryzae; 20 ppm) was 0% and the Efficacy % (Pyricularia oryzae; 100 ppm) was 5%. The “Efficacy in % found” value (Alternaria solani; 50 ppm a.i.) was 8%, the “Efficacy in % found” value (Alternaria solani; 100 ppm a.i.) was 8% and the “Efficacy in % found” value (Alternaria solani; 200 ppm a.i.) was 30%. The “Efficacy in % found” value ([2]; 50 ppm a.i.) was 0%, the “Efficacy in % found” value ([2]; 100 ppm a.i.) was 0% and the “Efficacy in % found” value ([2]; 200 ppm a.i.) was 20%.
For “metalaxyl-M (mefenoxam) [Example 12.004]”, the “Ecotoxicity LC50-48 h found” value [3] was over 200 ppm a.i and the “Ecotoxicity LC50-96 h found” value [3] was over 200 ppm a.i.
